SMILES strings stand for the structures.

Assay [1] deals with T1, 37 kDa laminin receptor precursor (37LRP/67LR) (Homo sapiens, UniProt P08865).
T1 construct: gene RPSA
Nature of the assay: ELISA-type inhibition of r37LRP binding to immobilized laminin (and YIGSR). In general terms: In an ELISA, binding on a coated surface is turned into a signal by an enzyme label.

Assay [2] concerns the target T1, 37 kDa laminin receptor precursor (37LRP/67LR). Nature of the assay: ELISA-type inhibition of r37LRP binding to immobilized laminin at […]. It is filed as biochemical.

In the case of `COc1ccc(NCc2c(O)ccc3ccccc23)cc1` [compound 13, 1-((4-methoxyanilino)methyl)-2-naphthol], in assay [1], the IC50 was 58.9 µM. This lies in the double-digit micromolar range.
Regarding `Cc1ccc(NCc2c(O)ccc3ccccc23)cc1` [compound 50, 1-(4-toluidinomethyl)-2-naphthol], the “ELISA-type inhibition of r37LRP binding to immobilized laminin at 50 μM” value (“ELISA-type inhibition of r37LRP binding” for short) in assay [2] was “NSC47923, NSC48478, NSC48861 and NSC48869 were active to the same extent as NSC47924, by in vitro binding assays”.
Consider `Oc1ccc2ccccc2c1CNc1ccc(Cl)cc1` [compound 52, 1-((4-chloroanilino)methyl)-2-naphthol], for which the “ELISA-type inhibition of r37LRP binding” value in assay [2] was “NSC47923, NSC48478, NSC48861 and NSC48869 were active to the same extent as NSC47924, by in vitro binding assays”.
For `Oc1ccc2ccccc2c1CN(Cc1c(O)ccc2ccccc12)c1ccccc1` [compound 60, 1-((((2-hydroxy-1-naphthyl)methyl)anilino)methyl)-2-naphthol], the “ELISA-type inhibition of r37LRP binding” value in assay [2] was “NSC47923, NSC48478, NSC48861 and NSC48869 were active to the same extent as NSC47924, by in vitro binding assays”.
As to `Cc1ccc(N(Cc2c(O)ccc3ccccc23)Cc2c(O)ccc3ccccc23)cc1` [compound 61, 1-((((2-hydroxy-1-naphthyl)methyl)-4-methylanilino)methyl)-2-naphthol], the “ELISA-type inhibition of r37LRP binding” value in assay [2] was “NSC47923, NSC48478, NSC48861 and NSC48869 were active to the same extent as NSC47924, by in vitro binding assays”.

Usually IC50 stands for the concentration that gives 50% inhibition. Low values mean inhibition by little substance, high ones a need for much substance.

The record behind these values is PMC4627239, “Discovery of new small molecules inhibiting 67 kDa laminin receptor interaction with laminin and cancer cell invasion” (Oncotarget, 2015).
